Measurements as given in patent publication US11633379B2, “Methods of inhibiting PCSK9” (TRUSTEES OF DARTMOUTH COLLEGE, priority 2017, dated 2023).
Like-named read-outs stand apart in the source and are kept apart here.

Experiments:
LDLR = LDLR levels in HepG2 cells (western blot); type: cell-based, human; details: 5 μM, FIG. 3
Excerpt: Protein extracts (IMO were used for immunodetection of intracellular LDLR (western blot analysis) with a commercially available primary antibody against LDLR (ABCAM, catalog #14056), HRP-conjugated secondary antibody (ABCAM, catalog #97135) visualized using an enhanced chemiluminescence (ECL) solution (Cumaric acid, Luminol and hydrogen peroxide), developed in a LiCore imager. See FIG. 3.

apoE mRNA = assay: apoE transcription, HepG2 (real-time PCR); type: cell-based, human; details: HepG2, FIG. 7B
Excerpt: , cells were washed with HBSS followed by RNA extraction kit (RNeasy, QIAGEN cat #74-104). mRNA was reversed transcribed to cDNA using commercially available kit (ThermoFisher, cat #4368814) and analyzed using real-time PCR for apoE transcript levels using the relative expression method known as delta-delta CT.

albumin [1] = assay: Albumin secretion, HepG2 (ELISA); type: cell-based, human
Experimental: The collected media was analyzed for albumin levels using commercially available ELISA kit (ABCAM, catalog #108788) following the manufacturer instruction.

PCSK9 [2] = assay: Intracellular PCSK9 protein in HepG2 cells (western blot); type: cell-based, human; details: FIG. 1A
Experimental: To study whether 34 affect intracellular PCSK9 levels we used 1×10^6 HepG2 cells in 6-well culture plates, followed by incubation with media+0.1% DMSO or increasing concentration (0.2-50 uM) of 34 in 0.1% DMSO for 24 hours. After 24 hours media was aspirated, cells were washed with HBSS followed by protein extraction using commercially available RIPA buffer (SIGMA-ALDRICH, catalog #20-188). Protein extracts (20 μg) were used for immunodetection of intracellular PCSK9 (western blot analysis) with a commercially available primary antibody against PCSK9 (MBL-international, catalog # CY-1037), HRP-conjugated secondary antibody (SIGMA-ALDRICH, catalog #12-348) visualized using an enhanced chemiluminescence (ECL) solution (Cumaric acid, Luminol and hydrogen peroxide), developed in a LiCore imager.

PCSK9 [3] = assay: Plasma PCSK9 levels in mice (ELISA); type: in vivo
Experimental: 1) Single-dose experiments: mice were administered (oral gavage or intra-peritoneal injection) with 200 μl of 34 (30 mg/kg or 100 mg/kg) in 0.1% Tween 80+1% hydroxyethyl cellulose (HEC) in buffered (PBS pH7.4) solution. After 34 administration, 50-70 μl of blood was collected from the retro-orbital plexus every 4-6 hours (for a total of 24 hours). Blood was left to clot at room temperature for 20 min, followed by serum separation (spin at 1000 g for 10 min). Serum was analyzed as specified in the “Serum analyses” section.
2) Daily dosage experiments: mice were administered daily oral gavage with 200 μl of 34 (100 mg/kg) in 0.1% Tween80+1% hydroxyethyl cellulose (HEC) in buffered (PBS pH7.4) solution. 50-70 μl of blood was collected from the retro-orbital plexus on day 3 and day 5 after 34 administration, on day 5 mice were euthanized and liver were collected and analyzed as mentioned below under the “Liver analyses” section. Blood was left to clot at room temperature for 20 min, followed by serum separation (spin at 1000 g for 10 min). Serum was analyzed as described below:
PCSK9 levels—using commercially available ELISA kit (MBL-international, catalog # CY-8079) following the manufacturer instruction.

AST = tested on: AST; set-up: species or system mice; details: mouse, in vivo, po
Experimental: 1) Single-dose experiments: mice were administered (oral gavage or intra-peritoneal injection) with 200 μl of 34 (30 mg/kg or 100 mg/kg) in 0.1% Tween 80+1% hydroxyethyl cellulose (HEC) in buffered (PBS pH7.4) solution. After 34 administration, 50-70 μl of blood was collected from the retro-orbital plexus every 4-6 hours (for a total of 24 hours). Blood was left to clot at room temperature for 20 min, followed by serum separation (spin at 1000 g for 10 min). Serum was analyzed as specified in the “Serum analyses” section. 2) Daily dosage experiments: mice were administered daily oral gavage with 200 μl of 34 (100 mg/kg) in 0.1% Tween80+1% hydroxyethyl cellulose (HEC) in buffered (PBS pH7.4) solution. 50-70 μl of blood was collected from the retro-orbital plexus on day 3 and day 5 after 34 administration, on day 5 mice were euthanized and liver were collected and analyzed as mentioned below under the “Liver analyses” section. Blood was left to clot at room temperature for 20 min, followed by serum separation (spin at 1000 g for 10 min). Serum was analyzed as described below: AST activity—using commercially available activity assay (SIGMA-ALDRICH, catalog # MAK055) following the manufacturer instruction.

HepG2 cells = assay: Cell survival, MTT assay; type: cell-based, human
Experimental: To study the effect of the compound on cell viability we used 1.25×10^5 HepG2 cells in 96-well culture plates, followed by incubation with media only, media+0.1% DMSO or Media+5 uM of 31/33/34/35 in 0.1% DMSO or with increasing concentration (0.2-50 μM) of 34 in 0.1% DMSO for 40 hours followed by a viability assay knows as MTT. The MTT assay is a colorimetric assay for assessing cell metabolic activity. NAD(P)H-dependent cellular oxidoreductase enzymes may, reflects the number of viable cells present. These enzymes are capable of reducing the tetrazolium dye MTT 3-(4,5-dimethylthiazol-2-yl)-2,5-diphenyltetrazolium bromide to its insoluble formazan, which has a purple color. Tetrazolium dye assays (commonalty known as the MTT assay) is used to measure cytotoxicity (loss of viable cells).

albumin [4] = assay: Intracellular albumin, HepG2 (ELISA); type: cell-based, human
Experimental: After 24 hours media was aspirated, cells were washed with HBSS followed by protein extraction using commercially available RIPA buffer (SIGMA-ALDRICH, catalog #20-188). Protein extracts (5 μgr) were used for albumin detection using commercially available ELISA kit (ABCAM, catalog #108788) following the manufacturer instruction.

[5] = 20 μM and 50 μM, HepG2, result of increased cell death

CC(=O)Oc1ccc(C2CC3(CCCCC3)c3c2[nH]c2ccccc32)cc1 (centres unmarked) [Compound 34]
increase in LDLR protein levels (LDLR): 21% | apoE mRNA levels (apoE mRNA): no changes in secreted, intracellular, or mRNA levels of apoE | secreted albumin (albumin [1]; [5]): Reduction in secreted and intracellular albumin | secreted albumin (albumin [1]; up to 10 μM, 40 hours of incubation, HepG2, FIG. 6A): no changes in secreted or intracellular albumin | intracellular PCSK9, pro-protein and mature forms (PCSK9 [2]): reduces levels of both the pro-protein and the mature forms of PCSK9 in a dose-dependent manner | individual mice with a drop in PCSK9 levels (PCSK9 [3]; 5-day oral 100 mg/kg/day, FIG. 12B): all mice receiving compound 34 presented with a drop in PCSK9 levels | drop in plasma PCSK9 (PCSK9 [3]; 5-day oral 100 mg/kg/day, day 5, FIG. 12A): 36.2% | maximal drop in plasma PCSK9 (PCSK9 [3]; single 30 mg/kg intraperitoneal (IP) injection, 4 hours after administration, FIG. 9): 43.2% | maximal drop in plasma PCSK9 (PCSK9 [3]; single 30 mg/kg oral gavage, 4 hours after administration, FIG. 9): 22.5% | time after administration at which PCSK9 levels are back to baseline (PCSK9 [3]; single 30 mg/kg, IP or oral, FIG. 9): 20 h | maximal drop in plasma PCSK9 (PCSK9 [3]; single oral 30 mg/kg, 6 hours after administration, FIG. 10A): 28.5% | time after administration at which PCSK9 levels are back to baseline (PCSK9 [3]; single oral 30 mg/kg, FIG. 10A): 18 h | maximal drop in plasma PCSK9 (PCSK9 [3]; single oral 100 mg/kg, 6 hours after administration, FIG. 10B): 33.4% | time after administration at which PCSK9 levels are back to baseline (PCSK9 [3]; single oral 100 mg/kg, FIG. 10B): 24 h | liver function (measured as AST activity) (AST; 100 mg/kg): not affected | liver function (measured as AST activity) (AST; 100 mg/kg/day): not affected | cell death (HepG2 cells; 20 μM and 50 μM, HepG2, FIG. 4B): increased cell death | HepG2 cell survival (MTT) (HepG2 cells; concentrations up to 5 μM, FIGS. 4A-4B): does not affect HepG2 cell survival at concentrations up to 5 μM | intracellular albumin (albumin [4]; [5]): Reduction in secreted and intracellular albumin | intracellular albumin (albumin [4]; up to 10 μM, 40 hours of incubation, HepG2, FIG. 6B): no changes in secreted or intracellular albumin
